According to patent US6124278A, “Acylbenzoxazines for enhancing synaptic response” (The Regents of the University of California, priority 1998, dated 2000):
Several values for one entry are separate records, joined by “and”; a condition that tells them apart may be missing. Equal values may be shown once. Read-outs that look alike come from different tables or passages of the source. One block for each molecule: values may come before it.

Tests used:
[1] = Plasma clearance half-life and oral bioavailability (AUC oral vs iv) in rat; assay type: in vivo
From the text: (§1) The third data column reports the magnitude of the increase in the amplitude of the EPSP at the lowest concentrations that produced a significant increase. The characteristic of a compound to produce an increase in the EPSP response has been a reliable predictor of the ability to improve memory in the 8-arm radial maze task.
*Plasma clearance following iv administration in rat
^# AUC for oral administration as a percentage of AUC for iv

AMPA receptors [2] = assay: Field EPSP response in rat hippocampal slices (CA1); assay type: cell-based, rat (Sprague-Dawley); details: for EPSP Response (percentage increase in the area of the EPSP response): rat hippocampal slices
Description: The physiological effects of invention compounds can be tested in vitro with slices of rat hippocampus according to the following procedure. Excitatory responses (field EPSPs) are measured in hippocampal slices, which are maintained in a recording chamber continuously perfused with artificial cerebrospinal fluid (ACSF). During a 15-30 minute interval, the perfusion medium is switched to one containing various concentrations of the test compounds. Responses collected immediately before and at the end of drug perfusion were superimposed in order to calculate both the percent increase in EPSP amplitude and percent increase in the width of the response at one-half the peak height (half-width).
To conduct these tests, the hippocampus was removed from anesthetized, 2 month old Sprague-Dawley rats and in vitro slices (400 micrometers thick) were prepared and maintained in an interface chamber at 35° C. using conventional techniques [see, for example, Dunwiddie and Lynch, J. Physiol. 276: 353-367 (1978)]. The chamber was constantly perfused at 0.5 mL/min with ACSF containing (in mM): NaCl 124, KCl 3, KH2 PO4 1.25, MgSO4 2.5, CaCl2 3.4, NaHCO3 26, glucose 10 and L-ascorbate 2. A bipolar nichrome stimulating electrode was positioned in the dendritic layer (stratum radiatum) of the hippocampal subfield CA1 close to the border of subfield CA3.
Current pulses (0.1 msec) through the stimulating electrode activate a population of the Schaffer-commissural (SC) fibers that arise from neurons in the subdivision CA3 and terminate in synapses on the dendrites of CA1 neurons. Activation of these synapses causes them to release the transmitter glutamate. Glutamate binds to the post-synaptic AMPA receptors which then transiently open an associated ion channel and permit a sodium current to enter the postsynaptic cell. This current results in a voltage in the extracellular space (the field excitatory post-synaptic potential or field "EPSP") which is recorded by a high impedance recording electrode positioned in the middle of the stratum radiatum of CA1.
For the experiments summarized Table 1, the intensity of the stimulation current was adjusted to produce half-maximal EPSPs (typically about 1.5-2.0 mV). Paired stimulation pulses were given every 40 sec with an interpulse interval of 200 msec (see below). The field EPSPs of the second response were digitized and analyzed to determine amplitude, half-width, and response area. If the responses were stable for 15-30 minutes (baseline), test compounds were added to the perfusion lines for a period of about 15 minutes. The perfusion was then changed back to regular ACSF.
Paired-pulse stimulation was used since stimulation of the SC fibers, in part, activates interneurons which generate an inhibitory postsynaptic potential (IPSP) in the pyramidal cells of CA1. This feed forward IPSP typically sets in after the EPSP reaches its peak. It accelerates the repolarization and shortens the decay phase of the EPSP, and thus could partially mask the effects of the test compounds. One of the relevant features of the feed-forward IPSP is that it can not be reactivated for several hundred milliseconds following a stimulation pulse. […]
The field EPSP recorded in field CA1 after stimulation of CA3 axons is known to be mediated by AMPA receptors: the receptors are present in the synapses [Kessler et al., Brain Res. 560: 337-341 (1991)] and drugs that selectively block the receptor selectively block the field EPSP [Muller et al., Science, supra]. […]

[3] = Memory enhancement in eight-arm radial maze; assay type: in vivo; details: rat, read-out: Maze MED (Minimum Effective Dose to improve performance of rats in the eight-arm radial maze)
From the text: as §1
^.dagger-dbl. Minimum Effective Dose to improve performance of rats i
the eightarm radial maze.

[4] = comparison compound, Example 1 of U.S. Pat. No. 5,736,543; rat; cited from earlier work
AMPA receptors [5] = details: metabolite; cited from earlier work

- half-life ([1]; iv administration): 58 min
- bioavailability ([1]; oral vs iv, read-out: Bioavailability (AUC for oral administration as a percentage of AUC for iv)): 100%
SMILES: O=C1CCC2Oc3cc4c(cc3CN12)OCO4 (centres unmarked) [Compound 1, 5a,6,7,8-Tetrahydro-1,3-dioxolo[4,5-g]pyrrolo[2,1-b][1,3]benzoxazine-8(10H)-one]
- EPSP Response (percentage increase in the area of the EPSP response) (AMPA receptors [2]; 300 μM): 20% and 25%

SMILES: O=C1CCC2Oc3cc4c(cc3CN12)OCCO4 (centres unmarked) [Compound 2, 6a,7,8,9-Tetrahydro-1,4-dioxin[2,3-g]pyrrolo[2,1-b][1,3]benzoxazine-9(11H)-one]
- EPSP Response (percentage increase in the area of the EPSP response) (AMPA receptors [2]; 30 μM): 20%
- minimal effective dose [3]: 0.1 mg/kg

SMILES: O=C1CCCC2Oc3cc4c(cc3CN12)OCCO4 (centres unmarked) [Compound 3, 6a,7,8,9-Tetrahydro-1,4-dioxan[2,3-g]pyrido[2,1-b][1,3]benzoxazine-10(10H,12H)-dione]
- EPSP Response (percentage increase in the area of the EPSP response) (AMPA receptors [2]; 30 μM): 10%

SMILES: O=C1CCC2Oc3cc4c(cc3C(=O)N12)OCO4 (centres unmarked) [Compound 4, 5a,6,7,8-Tetrahydro-1,3-dioxolo[4,5-g]pyrrolo[2,1-b][1,3]benzoxazine-8,10(10H)-dione]
- Activity in the slice model, in words (AMPA receptors [2]; 300 μM): inactive
- EPSP Response (percentage increase in the area of the EPSP response) (AMPA receptors [2]; 300 μM): 0%

SMILES: O=C1c2cc3c(cc2OC2CCCN12)OCO3 (centres unmarked) [Example 1 of U.S. Pat. No. 5,736,543]
- bioavailability [4]: 35%
- half-life [4]: 31 min

SMILES: COc1ccc(C(=O)NCCCC(=O)O)cc1 [anisoyl-GABA]
- Aniracetam-like effects (AMPA receptors [5]): only weak aniracetam-like effects
